Like-named read-outs stand apart in the source and are kept apart here.
What was measured:
[1] = HPLC quantitation of serum and liver compound and metabolite concentration; assay type: in vivo, rabbit (New Zealand White, female); conditions: for concentration at 1680 h: rabbit, po; for Serum Parent: parent compound concentration: 100800 min
Method: (§1) Female New Zealand White rabbits (Hazelton, ~2.0-2.3 kg) were fed 0.5% cholesterol/10% corn oil enriched rabbit chow (Purina # 5322) with or without test compound. The experiment was conducted for 70 days. The test compounds were solubilized in 100% ethanol and sprayed on the chow; control chows were sprayed with ethanol. The chows were dried overnight in a chemical fume hood. Rabbits were fed 100 grams food per day; water was available ad libitum. On the last day of the study rabbits (fasted overnight) were bled (~2 mL) from a marginal ear vein periodically to monitor serum cholesterol levels. The rabbits were euthanized on day 70 by carbon dioxide overdose. The total body and liver weights were recorded in grams. Food consumption was recorded as grams.cndot.day^-1. Aliquots of fresh serum were used for clinical chemistries and copper induced thiobarbituric acid reactive substances (TBARS). Aliquots of serum and livers (~5 gram) were frozen at -20° C. for compound and metabolite concentration determination at a later time.
Serum and liver concentrations of parent compounds and the metabolites, bisphenol and diphenoquinone, were determined by reverse phase HPLC using a Waters 990 Powerline system. Mao, S. J. T. et al., Meth. of Enzymol. 234, 517-525 (1994); Satoni, D. K. and Coutant, J. E., J. Chrom. 380, 401-406 (1986). Livers (1 gram) were homogenized with 5.0 mL PBS, pH 7.4, using a Polytron tissue homogenizer at setting 5 for 20-30 seconds. Serum or liver homogenates were extracted as follows: 100 μL of serum or homogenate were added to 2.0 mL diethyl ether: ethanol (3:1) while vortexing the tube. The sample tubes were capped and centrifuged for 10 min at 5° C. at 3500 rpm in a Beckman GPKR centrifuge with a GH 3.7 rotor. The supernatants were transferred to clean tubes and dried under N2. Samples were reconstituted with 200 μL of acetonitrile:hexane:0.1 M ammonium acetate (90:6.5:3.5, by vol.). Then, 100 μL were injected onto a Waters Deltapak C18-300 Å column, and eluted with an 83% acetonitrile: 17% water mobile phase at a flow rate of 1.5 mL/min. Absorbances at the wavelengths of 240, 254, and 420 nm were recorded. Compound concentrations were calculated from known quantities of authentic parent compounds after correction for recovery; the range of recovery from spiked samples was 40 to 100%. The lowest detectable limit for this class of compounds was ~0.5 μg/mL. Concentrations were calculated as of μg/mL serum and of […].
Sample compound concentrations in serum and liver are presented as
μg/mL or μg/g, respectively.
Serum Parent = parent compound concentration as μg/mL of serum
Serum Bis = bisphenol concentration as μg/mL of serum
Serum Quin = diphenoquinone concentration as […]
Liver Parent = parent compound concentration as μg/g liver
Liver Bis = bisphenol concentration as μg/g liver
Liver Quin = diphenoquinone concentration as μg/g liver
0 = value less than detectable limit of HPLC system

[2] = tested on: serum lipid oxidation (TBARS); assay: TBARS assay: copper-induced oxidation of serum lipids from treated rabbits; assay type: in vivo, rabbit (New Zealand White, female); conditions: CuSO4 37° C. 5 hr, diet I 0.15%*, II and III 0.40%
Method: as §1
TBARS are a […] indication of the oxidation of lipids in a sample. Mao, S J T et al. Meth. of Enzymol. 234, 517-525 (1994). In this assay copper sulfate was used to initiate the oxidation serum lipids, resulting in the formation of aldehydes, such as malondialdehyde (MDA). Upon incubation with thiobarbituric acid, the absorbance of the aldehydes was detected at 530-540 nm. TBARS values which are lower than control serum values indicate the relative ability of a test compound to inhibit the oxidation. TBARS were measured as follows: 50 μL of serum were mixed with 50 μL of 0.9% saline and 400 μL of a 5 mmol CuSO4 solution and incubated at 37° C. for 5 hr. The reactions were stopped by addition of 1.0 mL of 20% trichloroacetic acid. […] Absorbances were measured at 540 nm using a Biotek model EL311 microplate reader. The nmoles of MDA produced were calculated from a standard curve of 0 to 10 nmoles of MDA prepared from malonaldehyde bis(dimethyacetal). […]
TBARS = thiobarbituric acid reactive substances, expressed as nmole MDA

[3] = tested on: cholesterol-fed female New Zealand White rabbits (aortic lesions); assay: Antiatherosclerotic effect: aorta staining (Sudan IV) and lesion quantitation in cholesterol-fed female New Zealand White rabbits; assay type: in vivo, rabbit (New Zealand White; conditions: for Aortic Lesion % of Area, Abdom. (abdominal), as a percent of control: abdominal aorta; for Aortic Lesion % of Area, Abdom. (abdominal), as a percent of control / Aortic Lesion % of Area, Arch, as a percent of control / Aortic Lesion % of Area, Thor. (thoracic), as a percent of control / Aortic Lesion % of Area, Total, as a percent of control: 70 days, diet I 0.15%*, II and III 0.40%; for Aortic Lesion % of Area, Thor. (thoracic), as a percent of control: thoracic aorta; for Aortic Lesion % of Area, Total, as a percent of control: total surface area of aorta; for reduction of total aortic lesions: average, vs control rabbits, 0.15% for Compound I compared to 0.4% for Compound III
Method: as §1
The aortas were dissected from rabbits immediately after they were killed. The aorta from the ascending arch to the iliac bifurcation was excised after debridement of extraneous adipose tissue. Aortas were stored overnight in phosphate buffered saline (PBS)/0.02% sodium azide, pH 7.4, at 4° C. until final debridement. Before staining, aortas were cut open longitudinally and stained with Sudan IV as follows. Sudan IV stain (5.0 g) was added to 500 mL of 70% ethanol, 500 mL of acetone were added, and the solution was stirred overnight at room temperature. The solution was filtered through Whatman #1 filter paper. Aortas were rinsed with 70% ethanol for 10 minutes. They were stained with Sudan IV for 60 min at room temperature, rinsed with 70% ethanol for 5-10 min, and stored in deionized water overnight at 4° C. They were stored in PBS/0.02% sodium azide at 4° C. until imaging could be completed.
The areas containing sudanophilic lesions were quantitated as follows. Aortas were pinned flat onto black plastic sheets, illuminated with several fiber optic light sources, and photographed with a KODAK DCS-420 digital camera mounted on a copy stand. Images were captured and converted to 24 bit color TIFFs with Image Pals image editor software. The resulting images were rescaled to 1024×683 pixels to permit input into the Simple image analysis system and transferred to optical disk storage media. The Simple software was programmed to allow a region of interest to be drawn around the section of the aorta (arch, thoracic, abdominal) which separated the image of the aorta from the pins and the background. the program determined the tissue area in pixels based on pre-selected thresholds of hue, saturation, and intensity. These thresholds were adjusted to recognize the lesion area, and the percent fraction (# lesion pixels/# tissue pixels) was determined. This process was repeated on each portion of the aorta for each rabbit.
(§2) % Control = (Mean, treated group / Mean, control group) × (100)
Total = % area of total surface area of aorta covered with lesions
Arch, Thoracic, Abdominal = % area of each segments of the aorta

[4] = Body weight and liver weight/body weight in cholesterol-fed rabbits; assay type: in vivo, rabbit (New Zealand White, female); conditions: II and III 0.40%; for body wt. as a percent of control: 70 days in 0.5% cholesterol/10% corn oil chow, diet I 0.15% (0.4% × 7 days, 0% × 7 days, then 0.15% × 56 days); for lw/bw (liver weight / body weight) as a percent of control: 70 days, diet I 0.15%*
Method: as §1, §2
Body wt. = weight in kilograms
liver wt. = weight in kilograms
LW/BW = (liver weight / body weight)

[5] = tested on: serum cholesterol and triglycerides; assay: Clinical chemistries: serum total cholesterol and triglycerides in cholesterol-fed rabbits; assay type: in vivo, rabbit (New Zealand White, female); conditions: for TRIG (triglycerides) as a percent of control / chol tot. (total cholesterol) as a percent of control: serum, 70 days, diet I 0.15%*, II and III 0.40%; for increase of triglycerides: vs control rabbits
Method: as §1
Blood was allowed to clot at room temperature for 30 minutes. Serum was obtained after centrifugation for 10 min at 5° C. at 3000 rpm in a Beckman GPKR centrifuge with a GH 3.7 rotor. Fresh serum was analyzed by a COBA MIRA S autoanalyzer (Roche Diagnostics) using Roche diagnostic reagents for total cholesterol (CHOL, kit # 44334) and triglyceride (TG, kit # 44120). Cholesterol and triglycerides were calculated as mg/dL.
as §2
CHOL = total cholesterol mg/dL
TRIG = triglycerides, mg/dL

[6] = liver, diet I 0.15%*, II and III 0.40%, read-out: Liver Parent: parent compound concentration
[7] = liver, read-out: concentration of parent compound in livers
[8] = serum, diet I 0.15% (0.4% × 7 days, 0% × 7 days, then 0.15% × 56 days), II and III 0.40%, read-out: Serum Parent: parent compound concentration
[9] = serum, diet I 0.15% (0.4% × 7 days, 0% × 7 days, then 0.15% × 56 days), II and III 0.40%

SMILES	concentration at 1680 h [1, 6]	concentration at 1680 h [1, 7]	concentration at 1680 h [1, 8]	bisphenol and diphenoquinone metabolites in serum and livers [1]	Serum Parent: parent compound concentration [1, 9]	TBARS (nmole MDA) as a percent of control [2]	Aortic Lesion % of Area, Abdom. (abdominal), as a percent of control [3]	Aortic Lesion % of Area, Arch, as a percent of control [3]	Aortic Lesion % of Area, Thor. (thoracic), as a percent of control [3]	Aortic Lesion % of Area, Total, as a percent of control [3]	body wt. as a percent of control [4]	lw/bw (liver weight / body weight) as a percent of control [4]	TRIG (triglycerides) as a percent of control [5]	chol tot. (total cholesterol) as a percent of control [5]	increase of triglycerides [5]	reduction of total aortic lesions [3]
COc1ccccc1[Si](C)(C)COc1cc(C(C)(C)C)c(O)c(C(C)(C)C)c1 [Compound II, 2,6-di-t-butyl-4-[(dimethyl-2-methoxyphenylsilyl)methyloxy]phenol]	80900 ng/g	80.9 µg/mL	93.3 µg/mL	none of the bisphenol and diphenoquinone metabolites of Compounds I or II were detected in either serum or livers	93.3 µg/mL	90%	50%	56%	44%	55%	98%	86%	100%	79%	did not show an undesirable increase of triglycerides	
COc1ccc([Si](C)(C)COc2cc(C(C)(C)C)c(O)c(C(C)(C)C)c2)cc1 [Compound I, 2,6-Di-t-butyl-4-[(dimethyl-4-methoxyphenylsilyl)methyloxy]phenol]	44900 ng/g	44.9 µg/mL	7.3 µg/mL	none of the bisphenol and diphenoquinone metabolites of Compounds I or II were detected in either serum or livers	7.3 µg/mL	56%	10%	5%	3%	4%	95%	89%	22%	28%	did not show an undesirable increase of triglycerides	96%
CC(C)(C)c1cc(SC[Si](C)(C)c2ccccc2)cc(C(C)(C)C)c1O [Compound III, 2,6-di-t-butyl-4-[(dimethylphenylsilyl)methylthio]phenol, reference compound]	323000 ng/g	323 µg/mL	182 µg/mL	undesirably high concentrations in both serum and livers	182.4 µg/mL	18%	30%	50%	30%	43%	89%	98%	783%	64%		57%

From patent publication US6133467A, “2,6-di-t-butyl-4-[(dimethyl-4-methoxyphenylsilyl)-methyl-oxy]phenol and 2,6-di-t-butyl-4-[(dimethyl-2-methoxy-phenylsilyl)methyloxy]phenol” (Hoechst Marion Roussel, Inc., priority 1998, dated 2000)
